Results: ChEMBL document CHEMBL4339221, “Investigating the Anticancer Activity of Isatin/Dihydropyrazole Hybrids” (ACS Med Chem Lett, 2019)

Assays:
[1] = system: NCI-H1299; test: Antiproliferative activity against human NCI-H1299 cells assessed as cell growth at 10 uM incubated for 72 hrs by MTT assay relative to untreated control; assay type: functional; settings: NCI-H1299, 72 h, read-out: Activity
[2] = system: A549; test: Antiproliferative activity against human A549 cells assessed as cell growth at 10 uM incubated for 72 hrs by MTT assay relative to untreated control; assay type: functional; settings: A549, 72 h, read-out: Activity
[3] = Antiproliferative activity against human IGR-39 cells assessed as cell growth at 10 uM incubated for 72 hrs by MTT assay relative to untreated control; assay type: functional; settings: IGR-39, 72 h, read-out: Activity
[4] = system: MDA-MB-231; test: Antiproliferative activity against human MDA-MB-231 cells assessed as cell growth at 10 uM incubated for 72 hrs by MTT assay relative to untreated control; assay type: functional; settings: MDA-MB-231, 72 h, read-out: Activity
[5] = system: U-87 MG; test: Antiproliferative activity against human U87 cells assessed as cell growth at 10 uM incubated for 72 hrs by MTT assay relative to untreated control; assay type: functional, U-87MG ATCC; settings: read-out: Activity
[6] = system: SK-OV-3; test: Antiproliferative activity against human SKOV3 cells assessed as cell growth at 10 uM incubated for 72 hrs by MTT assay relative to untreated control; assay type: functional; settings: SK-OV-3, 72 h, read-out: Activity
[7] = system: BT-474; test: Antiproliferative activity against human BT474 cells assessed as cell growth at 10 uM incubated for 72 hrs by MTT assay relative to untreated control; assay type: functional; settings: BT-474, 72 h, read-out: Activity
[8] = system: BXPC-3; test: Antiproliferative activity against human BxPC3 cells assessed as cell growth at 10 uM incubated for 72 hrs by MTT assay relative to untreated control; assay type: functional; settings: BXPC-3, 72 h, read-out: Activity
[9] = Antiproliferative activity against human NHFB cells assessed as cell growth at 10 uM incubated for 72 hrs by MTT assay relative to untreated control; assay type: cell-based; settings: read-out: Activity
[10] = system: MCF7; test: Antiproliferative activity against human MCF7 cells assessed as cell growth at 10 uM incubated for 72 hrs by MTT assay relative to untreated control; assay type: functional; settings: MCF7, 72 h, read-out: Activity
[11] = system: U-87 MG; test: Induction of necrosis in human U87 cells at 0.5 times antiproliferative EC50 incubated for 72 hrs by Hoechst 33342 and propidium iodide staining based inverted fluorescent microscopy relative to untreated control; assay type: functional, U-87MG ATCC
[12] = Induction of apoptosis in human IGR-39 cells at 0.5 times antiproliferative EC50 incubated for 72 hrs by Hoechst 33342 and propidium iodide staining based inverted fluorescent microscopy relative to untreated control; assay type: functional
[13] = system: U-87 MG; test: Induction of apoptosis in human U87 cells at 0.5 times antiproliferative EC50 incubated for 72 hrs by Hoechst 33342 and propidium iodide staining based inverted fluorescent microscopy relative to untreated control; assay type: functional, U-87MG ATCC
[14] = system: SK-OV-3; test: Antiproliferative activity against human SKOV3 cells assessed as reduction in cell growth incubated for 72 hrs by MTT assay; assay type: functional, cell-based; settings: SK-OV-3, 72 h
[15] = system: A549; test: Induction of necrosis in human A549 cells at 0.5 times antiproliferative EC50 incubated for 72 hrs by Hoechst 33342 and propidium iodide staining based inverted fluorescent microscopy relative to untreated control; assay type: functional
[16] = system: A549; test: Induction of apoptosis in human A549 cells at 0.5 times antiproliferative EC50 incubated for 72 hrs by Hoechst 33342 and propidium iodide staining based inverted fluorescent microscopy relative to untreated control; assay type: functional
[17] = system: BT-474; test: Antiproliferative activity against human BT474 cells assessed as reduction in cell growth incubated for 72 hrs by MTT assay; assay type: functional, cell-based; settings: BT-474, 72 h
[18] = system: BXPC-3; test: Antiproliferative activity against human BxPC3 cells assessed as reduction in cell growth incubated for 72 hrs by MTT assay; assay type: functional, cell-based; settings: BXPC-3, 72 h
[19] = system: A549; test: Antiproliferative activity against human A549 cells assessed as reduction in cell growth incubated for 72 hrs by MTT assay; assay type: functional, cell-based; settings: A549, 72 h
[20] = system: NCI-H1299; test: Antiproliferative activity against human NCI-H1299 cells assessed as reduction in cell growth incubated for 72 hrs by MTT assay; assay type: functional, cell-based; settings: NCI-H1299, 72 h
[21] = system: MCF7; test: Antiproliferative activity against human MCF7 cells assessed as reduction in cell growth incubated for 72 hrs by MTT assay; assay type: functional, cell-based; settings: MCF7, 72 h
[22] = Antiproliferative activity against human IGR-39 cells assessed as reduction in cell growth incubated for 72 hrs by MTT assay; assay type: functional, cell-based; settings: IGR-39, 72 h
[23] = system: U-87 MG; test: Antiproliferative activity against human U87 cells assessed as reduction in cell growth incubated for 72 hrs by MTT assay; assay type: functional, cell-based, U-87MG ATCC
[24] = Induction of necrosis in human IGR-39 cells at 0.5 times antiproliferative EC50 incubated for 72 hrs by Hoechst 33342 and propidium iodide staining based inverted fluorescent microscopy relative to untreated control; assay type: functional
[25] = Antiproliferative activity against human NHFB cells assessed as reduction in cell growth incubated for 72 hrs by MTT assay; assay type: cell-based

| Compound | growth at 10 µM [1] [%] | growth at 10 µM [2] [%] | growth at 10 µM [3] [%] | growth at 10 µM [4] [%] | growth at 10 µM [5] [%] | growth at 10 µM [6] [%] | growth at 10 µM [7] [%] | growth at 10 µM [8] [%] | viability at 72 h, 10 µM [9] [%] | growth at 10 µM [10] [%] | EC50 [18] [nM] | EC50 [21] [nM] | EC50 [22] [nM] | EC50 [23] [nM] | further results |
| --- | --- | --- | --- | --- | --- | --- | --- | --- | --- | --- | --- | --- | --- | --- | --- |
| COc1ccc(C2CC(c3ccc4ccccc4c3)=NN2C2=NC(=O)/C(=C3/C(=O)Nc4c(C)cc(C)cc43)S2)cc1 (configuration not stated) | 87.8 | 43.8 | 63.4 | 73 | 64.2 | 26.6 | 62.2 | 44.9 | 55.6 | 120 | – | – | – | – | – |
| COc1ccc(C2CC(c3cccs3)=NN2C2=NC(=O)/C(=C3/C(=O)Nc4c(C)cc(C)cc43)S2)cc1 (configuration not stated) | 120 | 104 | 117 | 111 | 126 | 79.9 | 103 | 72.3 | 80.3 | 114 | – | – | – | – | – |
| COc1ccc(C2CC(c3cccs3)=NN2C2=NC(=O)/C(=C3/C(=O)Nc4ccc(C)cc43)S2)cc1 (configuration not stated) | 84 | 22.7 | 1.37 | 76.9 | 12.1 | 38.4 | 95 | 62.4 | 48.3 | 112 | – | – | – | – | – |
| COc1ccc(C2CC(c3ccc4ccccc4c3)=NN2C2=NC(=O)/C(=C3/C(=O)Nc4ccc(Cl)cc43)S2)cc1 (configuration not stated) | 9.76 | 3.84 | 1.3 | 6.87 | 1.59 | 6.69 | 24.2 | 5.62 | 14.4 | 3.81 | 60 | 70 | 330 | 380 | Activity [11]: <1%; Activity [12]: 13.5 - 27%; Activity [13]: 13.5 - 27%; EC50 [14]: 60 nM; Activity [15]: <1%; Activity [16]: 13.5 - 27%; EC50 [17]: 90 nM; EC50 [19]: 340 nM; EC50 [20]: 10 nM; Activity [24]: <1% |
| COc1ccc(C2CC(c3ccc4ccccc4c3)=NN2C2=NC(=O)/C(=C3/C(=O)Nc4c(F)cccc43)S2)cc1 (configuration not stated) | 60.5 | 86.5 | 109 | 87.3 | 86.2 | 67.7 | 112 | 73.1 | 89.4 | 118 | – | – | – | – | – |
| COc1ccc(C2CC(c3cccs3)=NN2C2=NC(=O)/C(=C3/C(=O)Nc4c(Br)cccc43)S2)cc1 (configuration not stated) | 89.2 | 86.1 | 101 | 73.9 | 57 | 88 | 94.3 | 53.7 | 46.3 | 126 | – | – | – | – | – |
| CCN(CC)CCNC(=O)c1c(C)[nH]c(/C=C2\C(=O)Nc3ccc(F)cc32)c1C [SUNITINIB] | – | – | – | – | – | – | – | – | – | – | 2500 | 960 | – | – | EC50 [14]: 1360 nM; EC50 [17]: 900 nM; EC50 [25]: 300 nM; EC50 [20]: 1540 nM |
| COc1ccc(C2CC(c3cccs3)=NN2C2=NC(=O)/C(=C3/C(=O)Nc4ccc(OC)cc43)S2)cc1 (configuration not stated) | 85.9 | 62.5 | 98.6 | 99.3 | 44.9 | 49.5 | 98.4 | 67.6 | 64.4 | 120 | – | – | – | – | – |
| COc1ccc(C2CC(c3ccc4ccccc4c3)=NN2C2=NC(=O)/C(=C3/C(=O)Nc4c(Br)cccc43)S2)cc1 (configuration not stated) | 81 | 94.2 | 98.6 | 68.2 | 96.7 | 89.9 | 88.2 | 55.3 | 47.3 | 102 | – | – | – | – | – |
| COc1ccc(C2CC(c3cccs3)=NN2C2=NC(=O)/C(=C3/C(=O)Nc4ccc(F)cc43)S2)cc1 (configuration not stated) | 68.3 | 63.6 | 28.1 | 81.5 | 14.4 | 94.1 | 102 | 77.2 | 20 | 112 | – | – | – | – | – |
| COc1ccc(C2CC(c3ccc4ccccc4c3)=NN2C2=NC(=O)/C(=C3/C(=O)Nc4ccc(OC)cc43)S2)cc1 (configuration not stated) | 9.85 | 3.93 | 1.2 | 9.67 | 1.13 | 41.4 | 49.1 | 5.13 | 13.3 | 3.64 | 100 | 270 | 500 | 670 | EC50 [17]: 240 nM; EC50 [25]: 270 nM; EC50 [19]: 730 nM; EC50 [20]: 150 nM |
| COc1ccc(C2CC(c3cccs3)=NN2C2=NC(=O)/C(=C3/C(=O)Nc4ccc(Cl)cc43)S2)cc1 (configuration not stated) | 117 | 22.4 | 0.9 | 80.4 | 4.35 | 56.6 | 86.8 | 59.6 | 47.5 | 112 | – | – | 2970 | 5760 | – |
| COc1ccc(C2CC(c3ccc4ccccc4c3)=NN2C2=NC(=O)/C(=C3/C(=O)Nc4ccc(C)cc43)S2)cc1 (configuration not stated) | 19.3 | 6.21 | 0.46 | 10.8 | 14.2 | 66.6 | 40.2 | 5.02 | 11.8 | 4.81 | 100 | 310 | 140 | 230 | Activity [11]: <1%; Activity [12]: 13.5 - 27%; Activity [13]: 13.5 - 27%; Activity [15]: <1%; Activity [16]: 13.5 - 27%; EC50 [25]: 150 nM; EC50 [19]: 180 nM; Activity [24]: <1% |
